This is an account of results in ChEMBL document CHEMBL5321216, “Discovery of bipyridine amide derivatives targeting pRXRα-PLK1 interaction for anticancer therapy” (Eur J Med Chem, 2023).

The IC50 is the point on the concentration scale where inhibition reaches its midpoint.

Active and inactive are the calls of the source. The rule behind the calls is not given here.

Test [1] concerns MDA-MB-231. The test is described as follows: Antiproliferative activity against human MDA-MB-231 cells assessed as cell viability rate at 5 uM incubated for 72 hrs by MTT assay relative to control. In kind it is functional.
For another test, the system named is HepG2. In words: Antiproliferative activity against human HepG2 cells assessed as cell viability rate at 5 uM incubated for 72 hrs by MTT assay relative to control. It counts as functional. (Tetrazolium dyes change colour on reduction, which living cells bring about.)
A further test has as its system A549. The test is described as follows: Antiproliferative activity against human A549 cells assessed as cell viability rate at 5 uM incubated for 72 hrs by MTT assay relative to control. It counts as functional.
In test [2] the test system is MDA-MB-231. In words: Antiproliferative activity against human MDA-MB-231 cells assessed as inhibition of cell proliferation incubated for 72 hrs by MTT assay. In kind it is functional, cell-based. The settings on record: MDA-MB-231, 72 h.
Test [3] has as its target T1, Retinoic acid receptor RXR-alpha (Homo sapiens) (UniProt P19793).
T1 sequence (whole entry): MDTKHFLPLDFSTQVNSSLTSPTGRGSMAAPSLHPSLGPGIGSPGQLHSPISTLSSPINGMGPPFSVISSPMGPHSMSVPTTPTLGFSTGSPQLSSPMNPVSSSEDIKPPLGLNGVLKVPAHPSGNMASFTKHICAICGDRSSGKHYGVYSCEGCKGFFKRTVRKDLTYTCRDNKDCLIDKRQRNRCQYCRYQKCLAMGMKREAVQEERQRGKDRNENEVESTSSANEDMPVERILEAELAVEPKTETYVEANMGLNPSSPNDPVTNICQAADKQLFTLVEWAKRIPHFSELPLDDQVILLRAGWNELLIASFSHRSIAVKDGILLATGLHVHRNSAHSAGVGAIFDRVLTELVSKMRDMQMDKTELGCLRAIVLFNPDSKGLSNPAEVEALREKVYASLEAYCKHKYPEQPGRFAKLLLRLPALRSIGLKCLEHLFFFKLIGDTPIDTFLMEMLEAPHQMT
In words: Antagonist activity at RXRalpha (unknown origin) transfected in human HeLa cells assessed as inhibition of CD3254- induced receptor transactivation by measuring remaining luciferase activity at 1 uM incubated for 24 hrs by dual luciferase reporter assay relative to control. In kind it is cell-based. The settings on record: filed as antagonist. (In general: A reporter such as luciferase makes a cellular process visible.)

Test [4] addresses T1, Retinoic acid receptor RXR-alpha (Homo sapiens). In words: Antagonist activity at RXRalpha (unknown origin) transfected in human HeLa cells assessed as inhibition of CD3254- induced receptor transactivation by measuring remaining luciferase activity at 1 uM incubated for 24 hrs by dual luciferase reporter assay. In kind it is cell-based. Particulars: filed as antagonist.

`Cc1cccc(CC(=O)Nc2ccc(-c3ccnc(N(C)CCO)c3)cn2)c1`: the Activity with MDA-MB-231 [1] was 51.81%; in the test on HepG2 it was 89.85%; with A549 it was 93.2%.

As to `Cc1cccc(CC(=O)Nc2ccc(-c3ccnc(N4CCC(CO)CC4)c3)cn2)c1`, the Activity is 32.19% in the test with MDA-MB-231 [1], 29.6% in the test on HepG2, less than 50% in test [3] and 63.99% in the test on A549. The IC50 in the test with MDA-MB-231 [2] was found to be 2.02 µM.

For `CN(CCO)c1cc(-c2ccc(NC(=O)Cc3cccc(F)c3)nc2)ccn1`, the Activity was 101.43% with MDA-MB-231 [1], 91.54% in the test on HepG2 and 92.91% in the test with A549.

Take `COc1cccc(CC(=O)Nc2cc(-c3ccnc(N4CCC(CO)CC4)c3)ccn2)c1`: in test [4], the inhibition result was “Active”. The values for the Activity in the test on MDA-MB-231 [1], with HepG2 and in the test with A549 were 72.35%, 92.25% and 94.17%, respectively.

For the compound `Cc1cccc(/C=C/C(=O)Nc2ccc(-c3ccnc(N4CCC(CO)CC4)c3)cn2)c1`, the Activity worked out at 38.51% in the test with MDA-MB-231 [1], 38.09% in the test with HepG2 and 41% in the test on A549.

Take `CC1CCN(c2cc(-c3ccc(NC(=O)Cc4cccc(F)c4)nc3)ccn2)CC1`: in test [4], the inhibition result was “Active”. Moreover, the figures for the Activity in the test on MDA-MB-231 [1], with HepG2 and in the test on A549 were 44.58%, 59.64% and 64.69%, respectively. In addition, the half-inhibitory concentration (IC50) with MDA-MB-231 [2] came to 1.46 µM.

With `O=C(CCc1ccccc1)Nc1cc(-c2ccnc(N3CCC(CO)CC3)c2)ccn1`, the inhibition result in test [4] was “Active”. Moreover, the values for the Activity in the test on MDA-MB-231 [1], in the test with HepG2 and with A549 were 25.7%, 37.04% and 62.19%, respectively. Besides, the IC50 in the test on MDA-MB-231 [2] was determined as 0.879 µM.

On to `O=C(/C=C/c1cccc(F)c1)Nc1ccc(-c2ccnc(N3CCC(CO)CC3)c2)cn1`, for which the Activity came to 51.3% in the test with MDA-MB-231 [1], 31.25% in the test on HepG2 and 42.31% with A549.

For the compound `COc1cccc(CC(=O)Nc2ccc(-c3ccnc(N4CCC(CO)CC4)c3)cn2)c1`, the Activity in the test on MDA-MB-231 [1] was 34.49%; in the test on HepG2, 27.89%; in test [3], less than 50%; in the test on A549, 77.14%. In addition, the IC50 in the test on MDA-MB-231 [2] was found to be 7.36 µM.

With `Cc1cccc(/C=C/C(=O)Nc2cc(-c3ccnc(N4CCC(CO)CC4)c3)ccn2)c1`, in test [4], the inhibition entry is “Active”. Further, the Activity was found to be 34.47% with MDA-MB-231 [1], 27.5% with HepG2 and 53.6% in the test with A549. Besides, the half-inhibitory concentration (IC50) with MDA-MB-231 [2] turned out to be 2.61 µM.

As for `Cc1cccc(CC(=O)Nc2cc(-c3ccnc(N4CCC(CO)CC4)c3)ccn2)c1`, the inhibition entry in test [4] is “Active”. The Activity with MDA-MB-231 [1] amounted to 46.82%; with HepG2 it was 60.73%; in the test on A549 it was 73.92%.

Regarding `COc1cccc(CC(=O)Nc2ccc(-c3ccnc(N4CCN(C)CC4)c3)cn2)c1`, the Activity in the test with MDA-MB-231 [1] turned out to be 99.26%; in the test on HepG2, 85.3%; in the test with A549, 103.91%.

For the compound `Cc1cccc(CC(=O)Nc2ccc(-c3ccnc(N4CCN(C)CC4)c3)cn2)c1`, the Activity with MDA-MB-231 [1] was 112.17%; in the test with HepG2, 86.83%; in test [3] it was less than 50%; in the test with A549 it was 126.23%.

Regarding `O=C(/C=C/c1cccc(F)c1)Nc1cc(-c2ccnc(N3CCC(CO)CC3)c2)ccn1`, the inhibition entry in test [4] is “Active”. The Activity in the test on MDA-MB-231 [1] was 31.06%; in the test on HepG2, 46.35%; in the test with A549, 55.98%. For the same compound, in the test on MDA-MB-231 [2], the concentration for half-maximal inhibition (IC50) came to 0.044 µM.

Consider `CN1CCN(c2cc(-c3ccc(NC(=O)Cc4cccc(F)c4)nc3)ccn2)CC1`, for which the Activity with MDA-MB-231 [1] worked out at 87.66%; in the test with HepG2, 84.3%; in the test with A549, 113.37%.

With `Cc1ccc(CC(=O)Nc2ccc(-c3ccnc(N4CCC(CO)CC4)c3)cn2)cc1`, the inhibition entry in test [4] is “Active”. The Activity with MDA-MB-231 [1] is 54.12%; in the test on HepG2 it was 51.27%; with A549, 72.28%.

Take `Cc1ccc(CC(=O)Nc2ccc(-c3ccnc(N4CCC(C)CC4)c3)cn2)cc1`: in test [4], the inhibition entry was “Active”. Further, the values for the Activity in the test on MDA-MB-231 [1], with HepG2 and in the test with A549 were 76.9%, 88.24% and 91.24%, respectively.

Regarding `O=C(Cc1cccc(F)c1)Nc1cc(-c2ccnc(N3CCC(CO)CC3)c2)ccn1`, the inhibition result in test [4] was “Active”. Further, the Activity is 82.84% with MDA-MB-231 [1], 88.95% with HepG2 and 98.62% in the test with A549.

With `COc1cccc(CC(=O)Nc2ccc(-c3ccnc(N(C)CCO)c3)cn2)c1`, the Activity with MDA-MB-231 [1] was found to be 96.96%; in the test with HepG2, 86.14%; with A549, 93.45%.

On to `CC1CCN(c2cc(-c3ccnc(NC(=O)Cc4cccc(F)c4)c3)ccn2)CC1`, for which the inhibition entry in test [4] is “Active”. In addition, the figures for the Activity in the test on MDA-MB-231 [1], in the test on HepG2 and in the test on A549 were 91.09%, 93.8% and 103.8%, respectively.

Turning to `Cc1ccc(CC(=O)Nc2ccc(-c3ccnc(N4CCN(C)CC4)c3)cn2)cc1`, in test [4], the inhibition result is “Active”. Besides, the Activity turned out to be 85.44% with MDA-MB-231 [1], 98.32% in the test on HepG2 and 103.32% in the test with A549.

Regarding `COc1cccc(CC(=O)Nc2ccc(-c3ccnc(N4CCC(C)CC4)c3)cn2)c1`, the inhibition result in test [4] was “Active”. Further, the Activity in the test on MDA-MB-231 [1] is recorded as 47.74%; with HepG2, 55.19%; in the test with A549, 80.24%. The IC50 with MDA-MB-231 [2] was 3.19 µM.

On to `COc1cccc(CC(=O)Nc2cc(-c3ccnc(N4CCC(C)CC4)c3)ccn2)c1`, for which, in test [4], the inhibition result is “Active”. Besides, the Activity turned out to be 83.56% in the test with MDA-MB-231 [1], 110.22% with HepG2 and 114.18% in the test on A549.

As to `O=C(Cc1cccc(F)c1)Nc1ccc(-c2ccnc(N3CCC(CO)CC3)c2)cn1`, the Activity is 36.36% in the test on MDA-MB-231 [1], 65.95% with HepG2, less than 50% in test [3] and 58.17% with A549. In addition, in the test on MDA-MB-231 [2], the 50% inhibitory concentration (IC50) was 3.5 µM.

Regarding `O=C(/C=C/c1ccccc1)Nc1ccc(-c2ccnc(N3CCC(CO)CC3)c2)cn1`, the Activity turned out to be 40.55% in the test on MDA-MB-231 [1], 31.76% in the test on HepG2 and 52.67% in the test on A549.

In the case of `Cc1ccc(CC(=O)Nc2ccc(-c3ccnc(N(C)CCO)c3)cn2)cc1`, the Activity in the test on MDA-MB-231 [1] turned out to be 96.17%; with HepG2, 87.52%; with A549, 100.97%.

In the case of `Cc1cccc(CC(=O)Nc2ccc(-c3ccnc(N4CCC(C)CC4)c3)cn2)c1`, the Activity was 44.06% in the test with MDA-MB-231 [1], 42.4% with HepG2, less than 50% in test [3] and 75.58% in the test with A549. In addition, in the test with MDA-MB-231 [2], the IC50 was 1.48 µM.

In the case of `Cc1cccc(CC(=O)Nc2cc(-c3ccnc(N4CCC(C)CC4)c3)ccn2)c1`, in test [4], the inhibition result was “Active”. For the same compound, the Activity in the test on MDA-MB-231 [1] was found to be 93.87%; with HepG2, 106.32%; in the test on A549 it was 108.84%.
